Test results published in US20080081788A1, “Diagnosis and treatment for immunoglobulin E (IgE) implicated disorders” (priority 2002, published 2008).
Like-named read-outs stand apart in the source and are kept apart here. Ends that are not written are not given here.

Experiments:
[1] = system: Myoglobin; format: in vivo, human; conditions: for Myoglobin levels in saliva: ELISA titer, Normal 1800, Glucotrol 15 mg/day, LT-10 2 mg/day or both
[2] = system: IgE; format: in vivo, human; conditions: for IgE levels in saliva: ELISA titer, Normal 16200, Glucotrol 15 mg/day, LT-10 2 mg/day or both
[3] = format: in vivo, human; conditions: seven days, compared with expt #1 and #2
[4] = system: Insulin; format: in vivo, human; set-up: Insulin levels in saliva: unit not given here; conditions: for Insulin levels in saliva: ELISA titer, Normal 600, Glucotrol 15 mg/day, LT-10 2 mg/day or both
[5] = system: NGF; format: in vivo, human; conditions: for NGF levels in saliva: ELISA titer, Normal 1200, Glucotrol 15 mg/day, LT-10 2 mg/day or both
[6] = in vivo

Compound: Cc1cnc(C(=O)NCCc2ccc(S(=O)(=O)NC(=O)NC3CCCCC3)cc2)cn1 [Glucotrol]
- Myoglobin levels in saliva ([1]; Day 1): 1800
- Myoglobin levels in saliva ([1]; Day 2): 3600
- Myoglobin levels in saliva ([1]; Day 3): 3600
- Myoglobin levels in saliva ([1]; Day 4): 2700
- Myoglobin levels in saliva ([1]; Day 5): 2700
- Myoglobin levels in saliva ([1]; Day 6): 2700
- Myoglobin levels in saliva ([1]; Day 7): 3500
- myoglobin level at completion point (FIG. 1) ([1]; end of seven days, times the normal level): increased the level of myoglobin
- effect on myoglobin levels in saliva, in words ([1]; treatment for seven days): contributes in increasing myoglobin levels
- IgE levels in saliva ([2]; Day 1): 145800
- IgE levels in saliva ([2]; Day 2): 148600
- IgE levels in saliva ([2]; Day 3): 145800
- IgE levels in saliva ([2]; Day 4): 148600
- IgE levels in saliva ([2]; Day 5): 148600
- IgE levels in saliva ([2]; Day 6): 145800
- IgE levels in saliva ([2]; Day 7): 145800
- effect on IgE levels in saliva, in words ([2]; treatment for seven days): does not contribute in lowering IgE levels
- effect on glucose level, in words [3]: did not make appreciable difference
- Insulin levels in saliva ([4]; Day 1): 1200
- Insulin levels in saliva ([4]; Day 2): 800
- Insulin levels in saliva ([4]; Day 3): 800
- Insulin levels in saliva ([4]; Day 4): 900
- Insulin levels in saliva ([4]; Day 5): 750
- Insulin levels in saliva ([4]; Day 6): 800
- Insulin levels in saliva ([4]; Day 7): 900
- effect on Insulin levels in saliva, in words ([4]; treatment for seven days): contributes m lowering Insulin levels
- NGF levels in saliva ([5]; Day 1): 2700
- NGF levels in saliva ([5]; Day 2): 8100
- NGF levels in saliva ([5]; Day 3): 5400
- NGF levels in saliva ([5]; Day 4): 5400
- NGF levels in saliva ([5]; Day 5): 2700
- NGF levels in saliva ([5]; Day 6): 2700
- NGF levels in saliva ([5]; Day 7): 5400
- effect on NGF levels in saliva, in words ([5]; treatment for seven days): perhaps increases NGF levels

Compound: LKAMDPTPPL [LT-10]
- side effects [6]: no observable side effects
